Source: article PMC5335602, “Protein-ligand binding affinity determination by the waterLOGSY method: An optimised approach considering ligand rebinding” (Scientific Reports, 2017)

Legend:
Format in all cases: binding
α-chymotrypsin = target: T1, α-chymotrypsin (Bos taurus, UniProt P00766); assay: […] NMR chemical shift titration; waterLOGSY titration
T1 construct: from bovine pancreas, Type II

[1] = target: T2, human serum albumin (HSA) (Homo sapiens, UniProt P02768); assay: waterLOGSY NMR titration ([…] HSA, […] s mixing time); conditions: read-out: KD^obs/μM / 25 μM HSA
T2 construct: gene ALB
T2 sequence (P02768 25-609): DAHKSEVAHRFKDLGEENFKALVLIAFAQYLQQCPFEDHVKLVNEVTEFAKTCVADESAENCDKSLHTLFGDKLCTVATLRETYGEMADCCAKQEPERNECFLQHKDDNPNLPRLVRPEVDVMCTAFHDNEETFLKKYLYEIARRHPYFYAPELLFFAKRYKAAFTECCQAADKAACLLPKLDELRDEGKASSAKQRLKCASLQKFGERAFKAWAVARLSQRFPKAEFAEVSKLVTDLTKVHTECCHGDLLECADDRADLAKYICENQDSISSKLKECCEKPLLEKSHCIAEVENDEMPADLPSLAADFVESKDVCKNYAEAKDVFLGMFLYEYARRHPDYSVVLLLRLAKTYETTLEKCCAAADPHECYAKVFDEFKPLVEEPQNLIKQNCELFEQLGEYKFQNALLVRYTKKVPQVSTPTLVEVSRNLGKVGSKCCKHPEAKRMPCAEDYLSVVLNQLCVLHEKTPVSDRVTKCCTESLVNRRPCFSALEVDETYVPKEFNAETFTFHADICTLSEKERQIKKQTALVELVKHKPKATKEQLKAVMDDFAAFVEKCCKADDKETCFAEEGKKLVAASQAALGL

[2] = target: T3, bovine serum albumin (BSA) (Bos taurus, UniProt P02769); assay: waterLOGSY NMR titration ([…] BSA)
T3 construct: gene ALB
T3 sequence (P02769 25-607): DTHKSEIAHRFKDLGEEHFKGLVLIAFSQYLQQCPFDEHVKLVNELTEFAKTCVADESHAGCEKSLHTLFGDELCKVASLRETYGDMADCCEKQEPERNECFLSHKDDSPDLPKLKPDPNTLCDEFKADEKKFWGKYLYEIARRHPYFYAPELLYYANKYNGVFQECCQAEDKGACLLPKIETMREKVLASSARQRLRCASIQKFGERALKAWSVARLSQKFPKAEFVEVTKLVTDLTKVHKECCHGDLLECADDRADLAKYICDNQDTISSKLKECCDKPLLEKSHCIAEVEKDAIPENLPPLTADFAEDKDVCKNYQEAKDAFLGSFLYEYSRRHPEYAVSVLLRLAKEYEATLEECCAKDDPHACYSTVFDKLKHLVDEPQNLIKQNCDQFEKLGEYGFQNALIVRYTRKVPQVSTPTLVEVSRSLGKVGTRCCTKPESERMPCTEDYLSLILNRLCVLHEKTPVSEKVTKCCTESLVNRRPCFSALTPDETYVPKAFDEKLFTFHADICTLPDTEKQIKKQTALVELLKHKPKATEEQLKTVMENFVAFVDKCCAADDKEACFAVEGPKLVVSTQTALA

Kd (α-chymotrypsin) [µM] | SMILES | Kd [1] [µM] | Kd [2] [µM]
630 | OB(O)c1cccc(F)c1 [3-Fluorophenylboronic acid] |  | 
 | N[C@@H](Cc1c[nH]c2ccccc12)C(=O)O [L-tryptophan] | 185 ± 50 | ~120
